Measured values taken from ChEMBL document CHEMBL5614442, “Discovery, synthesis and biological evaluation of novel isoquinoline derivatives as potent indoleamine 2, 3-dioxygenase 1 and tryptophan 2, 3-dioxygenase dual inhibitors” (Eur J Med Chem, 2024).

How the values were obtained:
Assay type in all cases: organism-based
Conditions in all cases: in vivo, 336 h, time 14 day
[1] = Toxicity in male C57BL/6 mouse implanted with mouse B16-F10 cells assessed as effect on liver morphology at 100 mg/kg, ip administered once daily for 14 days by H and E staining based analysis
[2] = Toxicity in male C57BL/6 mouse implanted with mouse B16-F10 cells assessed as effect on kidney morphology at 100 mg/kg, ip administered once daily for 14 days by H and E staining based analysis
[3] = Toxicity in male C57BL/6 mouse implanted with mouse B16-F10 cells assessed as body weight loss at 100 mg/kg, ip administered once daily for 14 days
[4] = Toxicity in male C57BL/6 mouse implanted with mouse B16-F10 cells assessed as effect on spleen morphology at 100 mg/kg, ip administered once daily for 14 days by H and E staining based analysis
[5] = Toxicity in male C57BL/6 mouse implanted with mouse B16-F10 cells assessed as effect on lung morphology at 100 mg/kg, ip administered once daily for 14 days by H and E staining based analysis
[6] = Toxicity in male C57BL/6 mouse implanted with mouse B16-F10 cells assessed as effect on heart morphology at 100 mg/kg, ip administered once daily for 14 days by H and E staining based analysis

Measured: Activity

Cn1cc(C[C@H](N)C(=O)O)c2ccccc21 [(L)-1-METHYLTRYPTOPHAN]
Non-Toxic: all assays above
